Assay results reported in ChEMBL document CHEMBL3882243, “Biphenyl compounds useful as muscarinic receptor antagonists” (2005).
pKi: −log10 of the molar value.

What was measured:
[1] = test system: Cavia porcellus; test: Bronchoprotective activity in Dunkan-Hartley guinea pig model of acetylcholine-induced bronchoconstriction assessed as efficacious dose that limited bronchrestriction response to 50 ug/mL dose of acetylcholine to doubling of baseline pulmonary resistance administered via nebulization for 10 mins measured at 1.5 hrs post dose by whole body plethysmography; assay type: functional
[2] = target: Muscarinic acetylcholine receptor M3 (Homo sapiens, UniProt P20309); test: Displacement of [3H]-NMS from human recombinant M3 receptor expressed in CHO cell membranes measured after 60 mins by topcount liquid scintillation counting
Sequence of Muscarinic acetylcholine receptor M3 (P20309 whole entry): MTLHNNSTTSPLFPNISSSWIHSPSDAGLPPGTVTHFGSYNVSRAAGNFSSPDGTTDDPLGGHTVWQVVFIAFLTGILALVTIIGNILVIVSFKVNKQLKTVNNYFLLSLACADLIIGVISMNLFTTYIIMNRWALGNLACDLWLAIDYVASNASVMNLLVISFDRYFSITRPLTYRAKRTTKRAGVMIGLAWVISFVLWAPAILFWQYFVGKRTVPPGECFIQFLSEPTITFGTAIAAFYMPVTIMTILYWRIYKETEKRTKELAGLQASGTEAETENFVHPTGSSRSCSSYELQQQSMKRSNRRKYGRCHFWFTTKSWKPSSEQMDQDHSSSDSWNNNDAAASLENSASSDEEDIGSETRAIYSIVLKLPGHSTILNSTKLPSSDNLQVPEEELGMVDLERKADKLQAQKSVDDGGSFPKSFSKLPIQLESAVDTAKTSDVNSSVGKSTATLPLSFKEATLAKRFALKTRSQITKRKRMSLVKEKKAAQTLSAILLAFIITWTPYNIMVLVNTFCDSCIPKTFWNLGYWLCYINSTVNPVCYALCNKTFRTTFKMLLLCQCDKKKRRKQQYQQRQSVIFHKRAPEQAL

pKi [2] | SMILES | ED [1]
– | CN(CCN1CCC(OC(=O)Nc2ccccc2-c2ccccc2)CC1)C(=O)c1ccc(CN2CCC(C(N)=O)CC2)cc1 [REVEFENACIN] | <200 µg/mL
> 8.30 | CCN(CCN1CCC(OC(=O)Nc2ccccc2-c2ccccc2)CC1)C(=O)c1ccc(CN2CCC(C(N)=O)CC2)cc1 | –
